According to ChEMBL document CHEMBL1201862, “PubChem BioAssay data set” (2004):
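How tested: cells in 96-well plates exposed to compound for 48 hours at five concentrations. Abbreviation: GI50, concentration required for 50% inhibition of growth.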 The source made the active and inactive calls. Cut-off read from the data, not from the text of the source: active = GI50 up to about 1.1 µM and inactive = higher.

Experiments:
Assay in all cases: NCI tumour cell line growth inhibition, 48 h
RXF 393 = tested on: RXF 393
NCI-H460 = tested on: NCI-H460
HT-29 = tested on: HT-29
SF-295 = tested on: SF-295
UO-31 = tested on: UO-31
UACC-257 = tested on: UACC-257
A549 = tested on: A549
SK-MEL-2 = tested on: SK-MEL-2
NCI-H522 = tested on: NCI-H522
SF-268 = tested on: SF-268
OVCAR-3 = tested on: OVCAR-3
SN12C = tested on: SN12C
RPMI-8226 = tested on: RPMI-8226
CCRF-CEM = tested on: CCRF-CEM
Malme-3M = tested on: Malme-3M
CAKI-1 = tested on: CAKI-1
ACHN = tested on: ACHN
MOLT-4 = tested on: MOLT-4
KM12 = tested on: KM12
TK-10 = tested on: TK-10

Row | SMILES | GI50 (RXF 393) | GI50 (NCI-H460) | GI50 (HT-29) | GI50 (SF-295) | GI50 (UO-31) | GI50 (UACC-257) | GI50 (A549) | GI50 (SK-MEL-2) | GI50 (NCI-H522) | GI50 (SF-268) | GI50 (OVCAR-3) | GI50 (SN12C) | GI50 (RPMI-8226) | GI50 (CCRF-CEM) | GI50 (Malme-3M) | GI50 (CAKI-1) | GI50 (ACHN) | GI50 (MOLT-4) | GI50 (KM12) | GI50 (TK-10)
1 | CCC(C)COC(=O)c1ccc(/N=C\c2ccc(/C=N/c3ccc(C(=O)OCC(C)CC)cc3)cc2)cc1 (configuration not stated) | > 100 µM (inactive) | > 100 µM (inactive) | > 100 µM (inactive) | > 100 µM (inactive) | 10.5 µM (inactive) | > 100 µM (inactive) | > 100 µM (inactive) | > 100 µM (inactive) | > 100 µM (inactive) | > 100 µM (inactive) | > 100 µM (inactive) | > 100 µM (inactive) | > 100 µM (inactive) | > 100 µM (inactive) | > 100 µM (inactive) | > 100 µM (inactive) | > 100 µM (inactive) | > 100 µM (inactive) | – | –
2 | CC1=CC2c3cccc4[nH]cc(c34)CC2N(C)C1 (configuration not stated) | > 100 µM (inactive) | 56.5 µM (inactive) | 49.4 µM (inactive) | 53.3 µM (inactive) | 11.9 µM (inactive) | 22.4 µM (inactive) | > 100 µM (inactive) | > 100 µM (inactive) | > 100 µM (inactive) | > 100 µM (inactive) | > 100 µM (inactive) | > 89.5 µM (inactive) | > 100 µM (inactive) | > 91.6 µM (inactive) | 30.3 µM (inactive) | 66.7 µM (inactive) | – | > 68.1 µM (inactive) | > 100 µM (inactive) | –
3 | CN(C)CCNC(=O)c1cccc2c1C(=O)c1ccccc1C2=O | 55 µM (inactive) | 29.6 µM (inactive) | 26.2 µM (inactive) | 33.7 µM (inactive) | 54 µM (inactive) | 19.5 µM (inactive) | 37.2 µM (inactive) | > 37.3 µM (inactive) | 25.1 µM (inactive) | > 100 µM (inactive) | 19.3 µM (inactive) | 33.7 µM (inactive) | 50.9 µM (inactive) | 23.8 µM (inactive) | 13.1 µM (inactive) | 32.4 µM (inactive) | – | 20.5 µM (inactive) | > 58.1 µM (inactive) | –
4 | COc1ccc(C2C3COc4ccccc4C3=NN2c2ccccc2)cc1 (configuration not stated) | > 100 µM (inactive) | 94.4 µM (inactive) | 87.1 µM (inactive) | > 100 µM (inactive) | > 100 µM (inactive) | > 100 µM (inactive) | > 100 µM (inactive) | > 100 µM (inactive) | > 100 µM (inactive) | > 100 µM (inactive) | > 100 µM (inactive) | – | > 100 µM (inactive) | > 100 µM (inactive) | > 100 µM (inactive) | > 100 µM (inactive) | > 100 µM (inactive) | 92.5 µM (inactive) | > 100 µM (inactive) | > 100 µM (inactive)
5 | c1ccc2c(NCCCCCCCCNc3c4ccccc4nc4ccccc34)c3ccccc3nc2c1 | 0.0782 µM (active) | 0.0428 µM (active) | < 0.0281 µM (active) | 0.693 µM (active) | 1.35 µM (inactive) | 1.37 µM (inactive) | 0.0948 µM (active) | 0.733 µM (active) | < 0.0247 µM (active) | 0.63 µM (active) | 0.37 µM (active) | 0.356 µM (active) | 0.0828 µM (active) | < 0.0278 µM (active) | 1.14 µM (inactive) | 0.546 µM (active) | 0.0703 µM (active) | 0.0419 µM (active) | 0.187 µM (active) | 1.38 µM (inactive)
6 | CCOC(=O)C(O)(NC(=O)c1ccc(F)cc1)C(F)(F)F (configuration not stated) | > 100 µM (inactive) | – | > 100 µM (inactive) | > 100 µM (inactive) | > 100 µM (inactive) | > 100 µM (inactive) | > 100 µM (inactive) | > 100 µM (inactive) | > 100 µM (inactive) | > 100 µM (inactive) | > 100 µM (inactive) | > 100 µM (inactive) | > 100 µM (inactive) | > 100 µM (inactive) | > 100 µM (inactive) | > 100 µM (inactive) | > 100 µM (inactive) | > 100 µM (inactive) | > 100 µM (inactive) | > 100 µM (inactive)
7 | CCN(CC)CCOC(=O)c1ccc(N)cc1.CCOC(=O)Nc1ccc(S(=O)(=O)OC)cc1.CCOC(=O)Nc1ccc(S(=O)(=O)OC)cc1.Nc1ccc(C(=O)O)c(O)c1 | > 100 µM (inactive) | > 100 µM (inactive) | > 100 µM (inactive) | > 100 µM (inactive) | > 100 µM (inactive) | > 100 µM (inactive) | > 100 µM (inactive) | > 100 µM (inactive) | > 100 µM (inactive) | > 100 µM (inactive) | > 100 µM (inactive) | > 100 µM (inactive) | – | > 100 µM (inactive) | > 100 µM (inactive) | > 100 µM (inactive) | > 100 µM (inactive) | > 100 µM (inactive) | > 100 µM (inactive) | > 100 µM (inactive)
8 | CC(=O)OCC1OC(N2C(=O)/C(=N\NC(N)=S)c3ccc([N+](=O)[O-])cc32)C(OC(C)=O)C1OC(C)=O (configuration not stated) | 20.2 µM (inactive) | 20.1 µM (inactive) | 30 µM (inactive) | 29.1 µM (inactive) | – | 37.4 µM (inactive) | 40.8 µM (inactive) | 20.7 µM (inactive) | 15 µM (inactive) | 30.8 µM (inactive) | 26.4 µM (inactive) | 36.1 µM (inactive) | 27.9 µM (inactive) | 12.9 µM (inactive) | 33.7 µM (inactive) | 38.4 µM (inactive) | 30.7 µM (inactive) | 15.3 µM (inactive) | 38.5 µM (inactive) | > 100 µM (inactive)
9 | COc1cccc(N2C(=O)C3c4[nH]c5ccc(C)cc5c4C4CCC(C(C)(C)C)CC4C3C2=O)c1 (configuration not stated) | 3.8 µM (inactive) | 2.21 µM (inactive) | 4.08 µM (inactive) | > 10 µM (inactive) | 2.8 µM (inactive) | – | 3.38 µM (inactive) | > 10 µM (inactive) | 1.87 µM (inactive) | 4.73 µM (inactive) | 5.46 µM (inactive) | 3.15 µM (inactive) | 4.06 µM (inactive) | 2.77 µM (inactive) | > 10 µM (inactive) | 9.84 µM (inactive) | > 10 µM (inactive) | 1.97 µM (inactive) | 3.52 µM (inactive) | > 10 µM (inactive)
10 | Cc1c2c(cc3c1[nH]c1ccccc13)C(c1ccc(F)cc1)=NCC2 | 1.42 µM (inactive) | 0.815 µM (active) | 1.17 µM (inactive) | 0.869 µM (active) | 1.08 µM (active) | 1.03 µM (active) | 1.48 µM (inactive) | 1.21 µM (inactive) | 1.08 µM (active) | 2.18 µM (inactive) | 0.993 µM (active) | 1.63 µM (inactive) | 0.935 µM (active) | 1.14 µM (inactive) | 1.68 µM (inactive) | 0.796 µM (active) | – | 1 µM (active) | 0.869 µM (active) | –
